Test results: US7232837B2, “Stereoisomers with high affinity for adrenergic receptors” (McNeil-PPC, Inc., priority 1999, dated 2007)

Key:
[1] = system: New Zealand white rabbits; assay: Intraocular pressure (IOP) after topical application to the rabbit eye; type: in vivo; settings: for IOP: mean ± S.E.
Procedure: (§1) These diastereomers were administered topically as either 1% or 2% solutions in buffered saline. Pupillary diameter and IOP were measured in all animals over a six hour time period during the day to minimize diurnal variations in IOP and pupil diameter.
(§2) The experiments were performed on adult male New Zealand white rabbits weighing 3.0–6.0 kg. All rabbits were caged individually and maintained on a 12 hr/12 hr light/dark schedule with free access to food and water. All animal procedures were in conformity with the ARVO Resolution on the Use and Care of Animals in Research. All treated rabbits had served as controls by having received a saline treatment on a different day.
(§3) Only one eye received drug treatment. The contralateral eye served as a control. Saline (or PBS) and drug treated rabbits were treated and observed simultaneously. A single dose was given at time zero and IOP and pupil diameter measured at −1.0, −0.5, 0.5, 1, 3 and 5 hrs post-treatment.
IOP measurements were recorded with an Alcon Applanation Pneumotonograph (Surgical Products Division, Alcon Laboratories, Inc., Ft. Worth, Tex.) in rabbits placed in Lucite restraining cages. Initial topical application of a two drop 0.5% proparacaine HCl (Ophthetic®, Allergan Pharmaceuticals, Inc.) was performed on each rabbit.
(§4) Mean and Standard Error values were used to construct time-response and dose-response curves for the treated and contralateral eye of research rabbits. The data were analyzed statistically by an analysis of variance and a Bonferoni's test for significance. P<0.05 was the accepted level of significance.

[2] = system: Swiss-Webster mice; assay: H1 receptor antagonist (triprolidine) interaction study, locomotor activity in mice; settings: mice pretreated with triprolidine 20 min before the test compound
Procedure: H1 receptor antagonist interaction studies. […] The mice were immediately placed in the activity testing chamber for a 2-h session. Doses of the test compound were selected from the ascending or descending time of the dose-effect curve determined from the compound-alone studies. Eight mice were tested for each triprolidine/test compound combination.
Statistical analysis. Time course data for each compound were considered in 2-way analyses of variance with dose as a between-group and time as a within-group factor. The dose-effect data were considered in 1-way analyses of variance, and planned individual comparisons were conduced between each dose and the saline control group. Interaction studies were considered in 2-way analyses of variance, with Pretreatment and Test dose as the factors.

[3] = system: New Zealand white rabbits; assay: Pupil diameter / mydriasis after topical application to the rabbit eye; type: in vivo; settings: for Pupil Diameter: mean ± S.E.
Procedure: as §1, §2, §3
Pupil diameter was measured visually at the point of the greatest horizontal diameter with a transparent millimeter ruler. All measurements were made under the identical ambient lighting conditions.
as §4

[4] = system: Swiss-Webster mice; assay: Locomotor stimulant and depressant effects in mice; settings: i.p.
[5] = 1% topical, drug treated eye (T), 0.5 hr
[6] = 1% topical, drug treated eye (T), 1 hr
[7] = 1% topical, drug treated eye (T), 3 hr
[8] = 1% topical, drug treated eye (T), 5 hr
[9] = 1% topical, drug treated eye (T), −0.5 hr (pre-treatment)
[10] = 1% topical, drug treated eye (T), −1 hr (pre-treatment)
[11] = 1% topical, untreated contralateral eye (U), 0.5 hr
[12] = 1% topical, untreated contralateral eye (U), 1 hr
[13] = 1% topical, untreated contralateral eye (U), 3 hr
[14] = 1% topical, untreated contralateral eye (U), 5 hr
[15] = 1% topical, untreated contralateral eye (U), −0.5 hr (pre-treatment)
[16] = 1% topical, untreated contralateral eye (U), −1 hr (pre-treatment)
[17] = 2% topical, drug treated eye (T), 0.5 hr
[18] = 2% topical, drug treated eye (T), 1 hr
[19] = 2% topical, drug treated eye (T), 3 hr
[20] = 2% topical, drug treated eye (T), 5 hr
[21] = 2% topical, drug treated eye (T), −0.5 hr (pre-treatment)
[22] = 2% topical, drug treated eye (T), −1 hr (pre-treatment)
[23] = 2% topical, untreated contralateral eye (U), 0.5 hr
[24] = 2% topical, untreated contralateral eye (U), 1 hr
[25] = 2% topical, untreated contralateral eye (U), 3 hr
[26] = 2% topical, untreated contralateral eye (U), 5 hr
[27] = 2% topical, untreated contralateral eye (U), −0.5 hr (pre-treatment)
[28] = 2% topical, untreated contralateral eye (U), −1 hr (pre-treatment)
[29] = — denotes absence of significant effect

CNC[C@@H](O)c1cccc(O)c1 [(+)-Phenylephrine, (+)-phenylephrine]
IOP [1, 5]: 16 ± 1.5 mmHg
IOP [1, 6]: 16 ± 0.7 mmHg
IOP [1, 7]: 15 ± 0.5 mmHg
IOP [1, 8]: 16 ± 1.0 mmHg
IOP [1, 9]: 18 ± 2.1 mmHg
IOP [1, 10]: 19 ± 1.8 mmHg
IOP [1, 11]: 19 ± 1.8 mmHg
IOP [1, 12]: 17 ± 1.1 mmHg
IOP [1, 13]: 16 ± 1.0 mmHg
IOP [1, 14]: 17 ± 1.7 mmHg
IOP [1, 15]: 19 ± 2.0 mmHg
IOP [1, 16]: 21 ± 2.0 mmHg
IOP [1, 17]: 20 ± 1.7 mmHg
IOP [1, 18]: 19 ± 1.8 mmHg
IOP [1, 19]: 19 ± 2.2 mmHg
IOP [1, 20]: 16 ± 2.4 mmHg
IOP [1, 21]: 19 ± 0.8 mmHg
IOP [1, 22]: 19 ± 0.9 mmHg
IOP [1, 23]: 21 ± 1.7 mmHg
IOP [1, 24]: 22 ± 2.2 mmHg
IOP [1, 25]: 20 ± 1.8 mmHg
IOP [1, 26]: 18 ± 1.9 mmHg
IOP [1, 27]: 19 ± 2.2 mmHg
IOP [1, 28]: 19 ± 1.6 mmHg
effect of triprolidine pretreatment on stimulant or depressant effects [2]: failed to show significant modification of stimulant or depressant effects
Pupil Diameter [3, 5]: 6 ± 0.2 mm
Pupil Diameter [3, 6]: 9 ± 0.2 mm
Pupil Diameter [3, 7]: 9 ± 0.2 mm
Pupil Diameter [3, 8]: 9 ± 0.2 mm
Pupil Diameter [3, 9]: 5 ± 0.2 mm
Pupil Diameter [3, 10]: 5 ± 0.2 mm
Pupil Diameter [3, 11]: 6 ± 0.2 mm
Pupil Diameter [3, 12]: 9 ± 0.2 mm
Pupil Diameter [3, 13]: 9 ± 0.2 mm
Pupil Diameter [3, 14]: 9 ± 0.2 mm
Pupil Diameter [3, 15]: 5 ± 0.2 mm
Pupil Diameter [3, 16]: 5 ± 0.2 mm
Pupil Diameter [3, 17]: 6 ± 0.2 mm
Pupil Diameter [3, 18]: 9 ± 0.2 mm
Pupil Diameter [3, 19]: 9 ± 0.2 mm
Pupil Diameter [3, 20]: 9 ± 0.2 mm
Pupil Diameter [3, 21]: 5 ± 0.2 mm
Pupil Diameter [3, 22]: 5 ± 0.2 mm
Pupil Diameter [3, 23]: 6 ± 0.2 mm
Pupil Diameter [3, 24]: 9 ± 0.2 mm
Pupil Diameter [3, 25]: 9 ± 0.2 mm
Pupil Diameter [3, 26]: 9 ± 0.2 mm
Pupil Diameter [3, 27]: 5 ± 0.2 mm
Pupil Diameter [3, 28]: 5 ± 0.2 mm
Depression Time: 30-min period following injection in which the maximal depression occurred [4]: 0 to 30 min
Stimulation Time: 30-min period following injection in which the maximal stimulant effect occurred [4]: 60 to 90 min
locomotor depressant effects, time course (result in words) [4]: dose-dependent locomotor depression within 10 to 20 minutes following injection
Depression Potency: dose resulting in ½ the maximal depressant effect (ID50) [4, 29]: 53.3 mg/kg

(+)-norpseudoephedrine
effect on IOP (result in words) ([1]; 1% or 2% topical, rabbit): accompanying increase in IOP
IOP [1, 5]: 19 ± 2.4 mmHg
IOP [1, 6]: 18 ± 1.8 mmHg
IOP [1, 7]: 18 ± 2.0 mmHg
IOP [1, 8]: 17 ± 2.8 mmHg
IOP [1, 10]: 18 ± 1.0 mmHg
IOP [1, 11]: 24 ± 1.8 mmHg
IOP [1, 12]: 19 ± 1.8 mmHg
IOP [1, 13]: 18 ± 2.8 mmHg
IOP [1, 14]: 17 ± 2.8 mmHg
IOP [1, 16]: 20 ± 1.7 mmHg
IOP [1, 17]: 18 ± 2.5 mmHg
IOP [1, 18]: 20 ± 2.3 mmHg
IOP [1, 19]: 20 ± 2.0 mmHg
IOP [1, 20]: 21 ± 2.8 mmHg
IOP [1, 21]: 16 ± 2.5 mmHg
IOP [1, 22]: 19 ± 2.4 mmHg
IOP [1, 23]: 22 ± 2.0 mmHg
IOP [1, 24]: 23 ± 2.1 mmHg
IOP [1, 25]: 22 ± 2.7 mmHg
IOP [1, 26]: 24 ± 2.3 mmHg
IOP [1, 27]: 19 ± 2.5 mmHg
IOP [1, 28]: 18 ± 2.6 mmHg
effect of triprolidine pretreatment on stimulant or depressant effects [2]: failed to show significant modification of stimulant or depressant effects
mydriasis / pupil diameter (result in words) ([3]; 1% or 2% topical, rabbit): significant mydriasis
Mydriatic Responses, TREATED EYE ([3]; 1% topical): ++ (++ = 2–4 mm change)
Mydriatic Responses, UNTREATED EYE ([3]; 1% topical): + (+ = 0–2 mm change)
Pupil Diameter [3, 5]: 8 ± 0.2 mm
Pupil Diameter [3, 6]: 8 ± 0.2 mm
Pupil Diameter [3, 7]: 8 ± 0.2 mm
Pupil Diameter [3, 8]: 8 ± 0.2 mm
Pupil Diameter [3, 9]: 6 ± 0.2 mm
Pupil Diameter [3, 10]: 6 ± 0.2 mm
Pupil Diameter [3, 11]: 8 ± 0.2 mm
Pupil Diameter [3, 12]: 8 ± 0.2 mm
Pupil Diameter [3, 13]: 8 ± 0.2 mm
Pupil Diameter [3, 14]: 8 ± 0.2 mm
Pupil Diameter [3, 15]: 6 ± 0.2 mm
Pupil Diameter [3, 16]: 6 ± 0.2 mm
Mydriatic Responses, TREATED EYE ([3]; 2% topical): ++ (++ = 2–4 mm change)
Mydriatic Responses, UNTREATED EYE ([3]; 2% topical): ++ (++ = 2–4 mm change)
Pupil Diameter [3, 17]: 9 ± 0.2 mm
Pupil Diameter [3, 18]: 9 ± 0.2 mm
Pupil Diameter [3, 19]: 9 ± 0.2 mm
Pupil Diameter [3, 20]: 9 ± 0.2 mm
Pupil Diameter [3, 21]: 6 ± 0.2 mm
Pupil Diameter [3, 22]: 6 ± 0.2 mm
Pupil Diameter [3, 23]: 9 ± 0.2 mm
Pupil Diameter [3, 24]: 9 ± 0.2 mm
Pupil Diameter [3, 25]: 9 ± 0.2 mm
Pupil Diameter [3, 26]: 9 ± 0.2 mm
Pupil Diameter [3, 27]: 6 ± 0.2 mm
Pupil Diameter [3, 28]: 6 ± 0.2 mm
Depression Time: 30-min period following injection in which the maximal depression occurred [4]: 10 to 40 min
Stimulation Time: 30-min period following injection in which the maximal stimulant effect occurred [4]: 30 to 60 min
Stimulation Potency: dose resulting in ½ the maximal stimulant effect (ID50) [4, 29]: 12.2 mg/kg
